{
  "source": "patent US4435591A",
  "about": "“Compound with analgesic, antiinflammatory and antipyretic activity, and pharmaceutical compositions therefrom” (Ausonia Farmaceutici s.r.l., priority 1982, dated 1984)",
  "key": {"[1]": {"test_system": "Arthritis caused by the adjuvant of Freund in rats", "experiment": "Arthritis caused by the adjuvant in rats (Winter and Nuss)", "type": "in vivo", "conditions": "100 mg/Kg/die oral", "text": "For the evaluation for the efficiency of the substance the following parameters have been considered: diameter of articulations, volume of the hind paws, hematological and hematochemical examination, weight of the suprarenal glands and thymus."}, "[2]": {"test_system": "subplantar edema caused by carrageenan in rats", "experiment": "Edema caused by carrageenan in rats (Winter et al)", "type": "in vivo", "conditions": "oral, AFP 802 187 mg/Kg, ibuprofen 100 mg/Kg", "method": "The anti-inflammatory activity has been investigated by a series of tests using edema caused by carrageenan and kaolin pleuritis caused by carrageenan and arthritis caused by an adjuvant.\nThe plyethysmographic observations of the edema have been carried out every hour for a period of 7 hours after the induction of the edema."}, "[3]": {"test_system": "Test of Randall and Selitto, in rats", "experiment": "Test of Randall and Selitto in rats", "type": "in vivo", "conditions": "100 mg/Kg oral", "method": "The analgesic activity of AFP 802 has been studied by means of the writhing test with phenylquinone in mice and by means of the test of Randall and Selitto in rats. Test of Randall and Selitto in rats. This test was carried out according to the method of L. Randall and J. Selitto reported in Arch. Int. Pharmacodyn., 1957 III, 409. […] The variations of pressure tolerated without variation in pain have been determined each hour, for 5 consecutive hours and the results are reported in Table 10."}, "[4]": {"test_system": "Edema caused by kaolin in rats", "experiment": "Edema caused by kaolin in rats (Coulon et al)", "conditions": "oral every 24 hours, 5 consecutive days, dose AFP 802 115, ibuprofen 60"}, "[5]": {"test_system": "Writhing caused by phenylquinone in mice", "experiment": "Writhing caused by phenylquinone in mice (Siegmung et al)", "type": "in vivo", "text": "The analgesic activity of AFP 802 has been studied by means of the writhing test with phenylquinone in mice and by means of the test of Randall and Selitto in rats."}, "[6]": {"test_system": "Hyperthermia caused by yeast", "experiment": "Antipyretic activity, hyperthermia caused by yeast in rats (Boissier and Simon)", "type": "in vivo", "text": "The experiment has been carried out in rats in which the body temperature has been increased by means of yeast by the method according to J. R. Boissier and P. Simon (Therapie, 1962, 17, 1225). […] It is, however, necessary to keep in mind the difference in molecular weight between the two substances under examination."}, "[7]": {"test_system": "Pleuritis caused by carrageenan in rats", "experiment": "Pleuritis caused by carrageenan in rats (Vinegar et al)", "type": "in vivo", "conditions": "for Number of leucocytes × 1,000 / Number of leucocytes, % inhibition with respect to the controls: 100 mg/Kg oral"}},
  "data": [
    {"smiles": "CC(C)Cc1ccc(C(C)C(=O)O)cc1", "note": "(centres unmarked) [Ibuprofen, ibuprofen, reference compound]", "values": [
      {"measurement": "ALBUMIN (%)", "setting": "[1]", "value": "68.0 ± 2.0", "unit": "%"},
      {"measurement": "GLOBULIN (%) α1", "setting": "[1]", "value": "8.8 ± 1.07", "unit": "%"},
      {"measurement": "GLOBULIN (%) α2", "setting": "[1]", "value": "5.5 ± 0.34", "unit": "%"},
      {"measurement": "GLOBULIN (%) β1", "setting": "[1]", "value": "13.9 ± 0.45", "unit": "%"},
      {"measurement": "GLOBULIN (%) β2", "setting": "[1]", "value": "5.9 ± 0.43", "unit": "%"},
      {"measurement": "GLOBULIN (%) γ", "setting": "[1]", "value": "1.9 ± 0.13", "unit": "%"},
      {"measurement": "Hematocrit", "setting": "[1]", "value": "45.4 ± 1.04"},
      {"measurement": "Leucocytes", "setting": "[1]", "value": "7,946 ± 380.5 × mm^3"},
      {"measurement": "Red Cells", "setting": "[1]", "value": "5,265.300 ± 1.003 × mm^3"},
      {"measurement": "VES", "setting": "[1]", "value": "1.7 ± 0.9"},
      {"measurement": "Σ Diameter D + S, Area", "setting": "[1]; both paws, area under the curve of the increases", "value": "2,616.2"},
      {"measurement": "Σ Diameter D + S, % inhibition", "setting": "[1]; both paws", "value": 70.92, "unit": "%"},
      {"measurement": "Suprarenal", "setting": "[1]; weight", "value": "65.6 ± 3.4", "unit": "mg"},
      {"measurement": "Thymus", "setting": "[1]; weight", "value": "375.0 ± 24.3", "unit": "mg"},
      {"measurement": "% inhibition vs control", "setting": "[2]; area", "value": 65.0, "unit": "%"},
      {"measurement": "Area Absolute Value", "setting": "[2]", "value": 102.8},
      {"measurement": "% INHIBITION WITH RESPECT TO THE CONTROL, I", "setting": "[3]; area, inflamed paw", "value": 45.41, "unit": "%"},
      {"measurement": "% INHIBITION WITH RESPECT TO THE CONTROL, NI", "setting": "[3]; area, not inflamed paw", "value": 65.35, "unit": "%"},
      {"measurement": "AREA ABSOLUTE VALUE, I", "setting": "[3]; inflamed paw, area of the increase of the pressure tolerated", "value": "-58.6 ± 25.25"},
      {"measurement": "AREA ABSOLUTE VALUE, NI", "setting": "[3]; not inflamed paw, area of the increase of the pressure tolerated", "value": "-39.95 ± 33.48"},
      {"measurement": "% inhibition with respect to the controls", "setting": "[4]; area", "value": 38.24, "unit": "%"},
      {"measurement": "Area (area under the curve of the increase of the diameter of the articulations)", "setting": "[4]", "value": 10799.5, "unit": "mm^2"},
      {"measurement": "% inhibition with respect to the control", "setting": "[5]; 100 mg/Kg oral", "value": 78.6, "unit": "%"},
      {"measurement": "No. of Contorsions", "setting": "[5]; 100 mg/Kg oral", "value": 4.5},
      {"measurement": "% inhibition with respect to the control", "setting": "[5]; 200 mg/Kg oral", "value": 86.7, "unit": "%"},
      {"measurement": "No. of Contorsions", "setting": "[5]; 200 mg/Kg oral", "value": 2.8},
      {"measurement": "% inhibition with respect to control", "setting": "[6]; 100 mg/Kg oral", "value": 121.24, "unit": "%"},
      {"measurement": "Rectal temperature", "setting": "[6]; 1 hour after treatment, 100 mg/Kg oral", "value": 37.71, "unit": "°C"},
      {"measurement": "Rectal temperature", "setting": "[6]; 2 hours after treatment, 100 mg/Kg oral", "value": 37.43, "unit": "°C"},
      {"measurement": "Rectal temperature", "setting": "[6]; 3 hours after treatment, 100 mg/Kg oral", "value": 37.36, "unit": "°C"},
      {"measurement": "Rectal temperature", "setting": "[6]; 4 hours after treatment, 100 mg/Kg oral", "value": 36.87, "unit": "°C"},
      {"measurement": "Rectal temperature", "setting": "[6]; 5 hours after treatment, 100 mg/Kg oral", "value": 37.12, "unit": "°C"},
      {"measurement": "Rectal temperature", "setting": "[6]; Basal, 100 mg/Kg oral group", "value": 38.34, "unit": "°C"},
      {"measurement": "Number of leucocytes × 1,000", "setting": "[7]; 5 hours", "value": "4,499 × 1,000"},
      {"measurement": "Number of leucocytes, % inhibition with respect to the controls", "setting": "[7]; 5 hours", "value": 73.60, "unit": "%"},
      {"measurement": "effect in pleuritis (in words)", "setting": "[7]; 24 hours after the administration", "value": "practically inactive"},
      {"measurement": "Number of leucocytes × 1,000", "setting": "[7]; 24 hours", "value": "18,470 × 1,000"},
      {"measurement": "Number of leucocytes, % inhibition with respect to the controls", "setting": "[7]; 24 hours", "value": 0.92, "unit": "%"}
    ]}
  ]
}
